Reference: ChEMBL document CHEMBL1151867, “Two novel monoterpene-chalcone conjugates isolated from the seeds of Alpinia katsumadai” (Bioorg Med Chem Lett, 2009)
In brackets after ≈: the same amount, converted by molar mass.

Assays:
Type in all cases: functional, cell-based
[1] = tested on: HepG2; test: Cytotoxicity against human HepG2 cells by MTT method
[2] = tested on: MCF7; test: Cytotoxicity against human MCF7 cells by MTT method
[3] = tested on: MDA-MB-435; test: Cytotoxicity against human MDA-MB-435 cells by MTT method

**Q.** What does the source list for `CC(C)[C@H]1C=C[C@]2(C)Oc3c(C(=O)/C=C/c4ccccc4)c(O)cc(O)c3C2C1` (stereo partly drawn) [Sumadain C]?
**A.** IC50 [1]: 13 µg/mL (≈ 33.3 µM); IC50 [2]: 15.9 µg/mL (≈ 40.8 µM); IC50 [3]: 12.8 µg/mL (≈ 32.7 µM)
